Laboratory results as given in publication PMC7447621, “Chemoenzymatic synthesis of daptomycin analogs active against daptomycin-resistant strains” (Applied Microbiology and Biotechnology, 2020).
Numbered stars: 1 amine (or outer) side, 2 acyl side, 3 side chain; on linkers, the order of the positions; unused ones are H or OH. Bridge positions count the residues as written; N and C are the ends. Square brackets hold non-standard residues; d marks the D form. Peptide text beside a SMILES is read from it. * marks the point of attachment. X5 = C=C(C)/C=C/C(C)c1[nH]c2ccccc2c1C[C@H](N[*:1])C(=O)[*:2]; X3 = C=C/C=C/Cc1[nH]c2ccccc2c1C[C@H](N[*:1])C(=O)[*:2]; Glu(3R-Me) = C[C@H](CC(=O)O)[C@H](N)C(=O)O; Kyn = Nc1ccccc1C(=O)C[C@H](N)C(=O)O; Decanoyl = CCCCCCCCCC(=O)*; Orn = NCCC[C@H](N)C(=O)O

Experiments:
[1] = assay type: physicochemical
Source text: These differences in activity could be due to differences between the structures of Dap and its analogs either in complex with Gram-positive membranes or in their unbound form. However, with no three-dimensional structure data for the analogs, only conjecture can be offered as to the cause. […] [2004]; Jung et al. [2004]), the benzene ring of Trp is thought to stick out away from the peptide core and lie roughly parallel to the main axis of the acyl tail. […] [2017]), which also suffered from a decrease in activity compared with its N1-normal-prenylated regioisomer. Conversely, the diene moieties attached at the C2 position are prone to conjugate addition reactions which would prevent the proper binding conformation or even enable degradation pathways. Therefore, to check their stability, all purified Dap analogs were reinjected on RP-HPLC after their structural and activity characterization (see Supporting Information Fig. S3). […] While future kinetic and engineering studies will likely answer these questions, the SAR identified in this study will inform future Dap development efforts using the […]-based diversification scheme.

[2] = test system: S. aureus (hVISA, SR3777); conditions: DapS, BEI NR-50509; MIC90, broth microdilution, MHB + 50 mg L^−1 calcium, 35 °C, 22 h, A600, triplicate
[3] = test system: E. faecalis (hVRE, ATCC 700802); conditions: DapS, VRE; MIC90, broth microdilution, MHB + 50 mg L^−1 calcium, 35 °C, 22 h, A600, triplicate
[4] = test system: S. aureus (SAUSA300_1715 NE1656); conditions: DapR, strain JE2 transposon mutant NE1656, BEI NR-48198; MIC90, broth microdilution, MHB + 50 mg L^−1 calcium, 35 °C, 22 h, A600, triplicate
S. aureus (hVISA, SR220) = conditions: DapS, VISA, BEI NR-50512; MIC90, broth microdilution, MHB + 50 mg L^−1 calcium, 35 °C, 22 h, A600, triplicate
E. faecalis (R712) = conditions: DapR, BEI HM-335; MIC90, broth microdilution, MHB + 50 mg L^−1 calcium, 35 °C, 22 h, A600, triplicate
S. aureus (ATCC 25923) = conditions: DapS strain; MIC90, broth microdilution, MHB + 50 mg L^−1 calcium, inoculum 1×10^5–5×10^5 CFU/mL, 35 °C, 22 h, A600, triplicate; converted from μM
[5] = test system: S. aureus (MRSA, ATCC 700787); conditions: DapS, MIC90, broth microdilution, MHB + 50 mg L^−1 calcium, 35 °C, 22 h, A600, triplicate
E. faecalis (S613) = conditions: DapS, BEI HM-334; MIC90, broth microdilution, MHB + 50 mg L^−1 calcium, 35 °C, 22 h, A600, triplicate
[6] = test system: S. aureus (SAUSA300_1713 NE573); conditions: DapR, strain JE2 transposon mutant NE573, BEI NR-47116; MIC90, broth microdilution, MHB + 50 mg L^−1 calcium, 35 °C, 22 h, A600, triplicate
[7] = test system: S. aureus (hVISA, SR4035); conditions: DapS, BEI NR-50510; MIC90, broth microdilution, MHB + 50 mg L^−1 calcium, 35 °C, 22 h, A600, triplicate
[8] = test system: S. epidermidis (ATCC 12228); conditions: DapS; MIC90, broth microdilution, MHB + 50 mg L^−1 calcium, 35 °C, 22 h, A600, triplicate

SMILES | stability of the purified product (RP-HPLC chromatogram) [1] | MIC [2] [µg/mL] | MIC [3] [µg/mL] | MIC [4] [µg/mL] | MIC (S. aureus (hVISA, SR220)) [µg/mL] | MIC (E. faecalis (R712)) [µg/mL] | MIC (S. aureus (ATCC 25923)) [µg/mL] | MIC [5] [µg/mL] | MIC (E. faecalis (S613)) [µg/mL] | MIC [6] [µg/mL] | MIC [7] [µg/mL] | MIC [8] [µg/mL]
C=C/C=C/Cc1[nH]c2ccccc2c1C[C@H](NC(=O)CCCCCCCCC)C(=O)N[C@H](CC(N)=O)C(=O)N[C@@H](CC(=O)O)C(=O)N[C@@H]1C(=O)NCC(=O)N[C@@H](CCCN)C(=O)N[C@@H](CC(=O)O)C(=O)N[C@H](C)C(=O)N[C@@H](CC(=O)O)C(=O)NCC(=O)N[C@H](CO)C(=O)N[C@@H]([C@H](C)CC(=O)O)C(=O)N[C@@H](CC(=O)c2ccccc2N)C(=O)O[C@@H]1C [compound 45, C2-15-Dap] (Decanoyl-[X3][dN]DTG[Orn]D[dA]DG[dS][Glu(3R-Me)][Kyn]; ester 4-C) | significant degradation | 16.9 | 33.7 | >8.4 | 33.7 | >8.4 | 16.9 | >33.7 | >8.4 | >8.4 | >33.7 | 16.9
C=C(C)/C=C/C(C)c1[nH]c2ccccc2c1C[C@H](NC(=O)CCCCCCCCC)C(=O)N[C@H](CC(N)=O)C(=O)N[C@@H](CC(=O)O)C(=O)N[C@@H]1C(=O)NCC(=O)N[C@@H](CCCN)C(=O)N[C@@H](CC(=O)O)C(=O)N[C@H](C)C(=O)N[C@@H](CC(=O)O)C(=O)NCC(=O)N[C@H](CO)C(=O)N[C@@H]([C@H](C)CC(=O)O)C(=O)N[C@@H](CC(=O)c2ccccc2N)C(=O)O[C@@H]1C (stereo partly drawn) [compound 47, C2R-18-Dap] (Decanoyl-[X5][dN]DTG[Orn]D[dA]DG[dS][Glu(3R-Me)][Kyn]; ester 4-C) | – | 34.3 | 34.3 | >34.3 | >34.3 | >34.3 | >34.3 | >34.3 | >34.3 | >34.3 | – | 34.3
